Test results as given in paper PMC10683028 (Journal of Medicinal Chemistry, 2023).

Key:
[1] = pH 7.4
Experimental: Test compounds were prepared as 0.5 mM solutions in 50:50 acetonitrile:water and analyzed by reversed-phase HPLC-UV (wavelength 254 nm) using a Phenomenex Luna C18 100 Å 150 × 4.6 mm 5 μm column with a gradient of aqueous phase (50 mM ammonium acetate, pH 7.4) and mobile phase (acetonitrile) as described.[41],[42]

in vitro = settings: PAMPA, pH 7.4
Experimental: In vitro ADME experiments were performed exactly as reported.[38]−[40]

Compound: O=C(NCCc1ccccc1)c1nc(-c2ccccc2)no1 [compound 4, 3-Phenyl-N-(2-phenylethyl)-1,2,4-oxadiazole-5-carboxamide]
- CHI-logDpH7.4 [1]: 3.2

Compound: COc1ccc(-c2noc(C(=O)NCCc3cccnc3)n2)cc1OC [compound 5, 3-(3,4-Dimethoxyphenyl)-N-[2-(3-pyridyl)ethyl]-1,2,4-oxadiazole-5-carboxamide]
- Papp (in vitro): 7.7 ×10⁻⁶ cm/s
- CHI-logDpH7.4 [1]: 1.8

Compound: COc1ccc(-c2noc(C(=O)NCCc3ccc(C(=O)O)cc3)n2)cc1OC [compound 6, 4-[2-[[3-(3,4-Dimethoxyphenyl)-1,2,4-oxadiazole-5-carbonyl]amino]ethyl]benzoic Acid]
- Papp (in vitro): 0.6 ×10⁻⁶ cm/s

Compound: COc1ccc(-c2noc(C(=O)NCC(C)(C)c3ccccc3)n2)cc1OC [compound 7, 3-(3,4-Dimethoxyphenyl)-N-(2-methyl-2-phenyl-propyl)-1,2,4-oxadiazole-5-carboxamide]
- CHI-logDpH7.4 [1]: 3.7

Compound: COc1ccc(-c2noc(C(=O)NC[C@H](C)c3ccccc3)n2)cc1OC [compound 8, 3-(3,4-Dimethoxyphenyl)-N-[(2R)-2-phenylpropyl]-1,2,4-oxadiazole-5-carboxamide]
- Papp (in vitro): 5.5 ×10⁻⁶ cm/s
- CHI-logDpH7.4 [1]: 3.3

Compound: COc1ccc(-c2noc(C(=O)NCCc3ccc(C(N)=O)cc3)n2)cc1OC [compound 11, N-[2-(4-Carbamoylphenyl)ethyl]-3-(3,4-dimethoxyphenyl)-1,2,4-oxadiazole-5-carboxamide]
- Papp (in vitro): 2.9 ×10⁻⁶ cm/s
- CHI-logDpH7.4 [1]: 1.7

Compound: CNC(=O)c1ccc(CCNC(=O)c2nc(-c3ccc(OC)c(OC)c3)no2)cc1 [compound 12, 3-(3,4-Dimethoxyphenyl)-N-[2-[4-(methylcarbamoyl)phenyl]ethyl]-1,2,4-oxadiazole-5-carboxamide]
- Papp (in vitro): 4.8 ×10⁻⁶ cm/s
- CHI-logDpH7.4 [1]: 1.8

Compound: COc1ccc(-c2noc(C(=O)NCCc3ccc(C(=O)N4CCC4)cc3)n2)cc1OC [compound 14, N-[2-[4-(Azetidine-1-carbonyl)phenyl]ethyl]-3-(3,4-dimethoxyphenyl)-1,2,4-oxadiazole-5-carboxamide]
- Papp (in vitro): 7.1 ×10⁻⁶ cm/s
- CHI-logDpH7.4 [1]: 2.1

Compound: COc1ccc(-c2noc(C(=O)NCCc3ccc(C(=O)N4CC(F)C4)cc3)n2)cc1OC [compound 16, 3-(3,4-Dimethoxyphenyl)-N-(4-(3-fluoroazetidine-1-carbonyl)phenethyl)-1,2,4-oxadiazole-5-carboxamide]
- Papp (in vitro): 8.5 ×10⁻⁶ cm/s
- CHI-logDpH7.4 [1]: 2.2

Compound: COc1ccc(-c2noc(C(=O)NCCc3ccc(C(=O)N4CC(F)(F)C4)cc3)n2)cc1OC [compound 17, N-(4-(3,3-Difluoroazetidine-1-carbonyl)phenethyl)-3-(3,4-dimethoxyphenyl)-1,2,4-oxadiazole-5-carboxamide]
- Papp (in vitro): 6.3 ×10⁻⁶ cm/s
- CHI-logDpH7.4 [1]: 2.6

Compound: COc1cccc(CCNC(=O)c2nc(-c3ccc(OC)c(OC)c3)no2)c1 [compound 19, 3-(3,4-Dimethoxyphenyl)-N-[2-(3-methoxyphenyl)ethyl]-1,2,4-oxadiazole-5-carboxamide]
- CHI-logDpH7.4 [1]: 2.9

Compound: COc1ccc(-c2noc(C(=O)NCCc3ccc(C(=O)N4CCC4)nc3)n2)cc1OC [compound 25, N-(2-(6-(Azetidine-1-carbonyl)pyridin-3-yl)ethyl)-3-(3,4-dimethoxyphenyl)-1,2,4-oxadiazole-5-carboxamide]
- Papp (in vitro): 5.4 ×10⁻⁶ cm/s
- CHI-logDpH7.4 [1]: 1.9

Compound: COc1ccc(-c2noc(C(=O)NC(C#N)Cc3ccc(C(=O)N4CCC4)cc3)n2)cc1OC (centres unmarked) [compound 33, N-(2-(4-(Azetidine-1-carbonyl)phenyl)-1-cyanoethyl)-3-(3,4-dimethoxyphenyl)-1,2,4-oxadiazole-5-carboxamide]
- Papp (in vitro): 2.8 ×10⁻⁶ cm/s
- CHI-logDpH7.4 [1]: 2.1

Compound: COc1ccc(-c2noc(C(=O)NC(C#N)Cc3ccccc3)n2)cc1OC (centres unmarked) [compound 38, N-(1-Cyano-2-phenylethyl)-3-(3,4-dimethoxyphenyl)-1,2,4-oxadiazole-5-carboxamide]
- Papp (in vitro): 7.2 ×10⁻⁶ cm/s
- CHI-logDpH7.4 [1]: 3.1

Compound: COc1ccc(CCNC(=O)c2nc(-c3ccc(OC)c(OC)c3)no2)cc1OC [compound 50, 3-(3,4-dimethoxyphenyl)-N-[2-(3,4-dimethoxyphenyl)ethyl]-1,2,4-oxadiazole-5-carboxamide]
- Papp (in vitro): 7.4 ×10⁻⁶ cm/s
- CHI-logDpH7.4 [1]: 2.5

Compound: COc1ccc(CCN(C)C(=O)c2nc(-c3ccc(OC)c(OC)c3)no2)cc1OC [compound 51, 3-(3,4-Dimethoxyphenyl)-N-[2-(3,4-dimethoxyphenyl)ethyl]-N-methyl-1,2,4-oxadiazole-5-carboxamide]
- CHI-logDpH7.4 [1]: 2.6

Compound: COc1ccc(-c2noc(CNCCc3ccccc3)n2)cc1OC [compound 53, N-[[3-(3,4-Dimethoxyphenyl)-1,2,4-oxadiazol-5-yl]methyl]-2-phenyl-ethanamine]
- CHI-logDpH7.4 [1]: 2.9

Compound: COc1ccc(-c2noc(C(=O)NCCc3ccc(C(=O)N4CCC4)cc3)n2)cc1F [compound 61, N-(4-(Azetidine-1-carbonyl)phenethyl)-3-(3-fluoro-4-methoxyphenyl)-1,2,4-oxadiazole-5-carboxamide]
- CHI-logDpH7.4 [1]: 2.6

Compound: COc1cc(-c2noc(C(=O)NCCc3ccc(C(=O)N4CCC4)cc3)n2)ccc1F [compound 62, N-(4-(Azetidine-1-carbonyl)phenethyl)-3-(4-fluoro-3-methoxyphenyl)-1,2,4-oxadiazole-5-carboxamide]
- CHI-logDpH7.4 [1]: 2.6

Compound: O=C(NCCc1ccc(C(=O)N2CCC2)cc1)c1nc(-c2ccc3nc[nH]c3c2)no1 [compound 63, N-(4-(Azetidine-1-carbonyl)phenethyl)-3-(1H-benzo[d]imidazol-6-yl)-1,2,4-oxadiazole-5-carboxamide]
- Papp (in vitro): 0.7 ×10⁻⁶ cm/s
- CHI-logDpH7.4 [1]: 1.3

Compound: O=C(NCCc1ccc(C(=O)N2CCC2)cc1)c1nc(-c2ccc3ccoc3c2)no1 [compound 64, N-(4-(Azetidine-1-carbonyl)phenethyl)-3-(benzofuran-6-yl)-1,2,4-oxadiazole-5-carboxamide]
- Papp (in vitro): 7 ×10⁻⁶ cm/s
- CHI-logDpH7.4 [1]: 2.5

Compound: O=C(NCCc1ccc(C(=O)N2CCC2)cc1)c1nc(-c2ccc3cc[nH]c3c2)no1 [compound 65, N-(4-(Azetidine-1-carbonyl)phenethyl)-3-(1H-indol-6-yl)-1,2,4-oxadiazole-5-carboxamide]
- Papp (in vitro): 4.4 ×10⁻⁶ cm/s
- CHI-logDpH7.4 [1]: 2.3

Compound: COc1ccc(-c2noc(C(=O)NCCc3ccc(C(=O)N4CC(OC)C4)cc3)n2)cc1OC1CCC1 [compound 78, 3-[3-(Cyclobutoxy)-4-methoxy-phenyl]-N-[2-[4-(3-methoxyazetidine-1-carbonyl)phenyl]ethyl]-1,2,4-oxadiazole-5-carboxamide]
- CHI-logDpH7.4 [1]: 2.9

Compound: COc1ccc(-c2nc(C(=O)NCCc3ccccc3)no2)cc1OC [compound 90, 5-(3,4-Dimethoxyphenyl)-N-phenethyl-1,2,4-oxadiazole-3-carboxamide]
- CHI-logDpH7.4 [1]: 2.9

Compound: COc1ccc(-c2n[nH]c(C(=O)NCCc3ccc(C(=O)N4CCC4)cc3)n2)cc1OC [compound 101, N-(4-(Azetidine-1-carbonyl)phenethyl)-3-(3,4-dimethoxyphenyl)-1H-1,2,4-triazole-5-carboxamide]
- CHI-logDpH7.4 [1]: 1.3

Compound: COc1ccc(CCNC(=O)c2nc(-c3ccccc3)no2)cc1OC [compound 107]
- CHI-logDpH7.4 [1]: 2.8

Compound: COc1ccc(-c2noc(C(=O)NCCN3CCOCC3)n2)cc1OC [compound 108]
- CHI-logDpH7.4 [1]: 1.4
